# Data as given in US20070167526A1, “Topical mecamylamine formulations for ocular administration and uses thereof” (priority 2005, published 2007).
# Tests used:
# [1] = Single- and multiple-dose rabbit ocular pharmacokinetics (Example 7); format: in vivo, Dutch-belted rabbit
# Protocol: Dutch-belted male rabbits (Covance, Denver, Pa.) aged 2.5 to 4.5 months and with weights of 1.5 to 2.5 kg were given a 3% solution of mecamylamine hydrochloride (polymer-free solution) by ocular installation either as a single dose or 6 doses (50 microliters per dose), approximately 1.5 hours apart. Serial blood samples (approximately 0.5 mL each) were collected by direct venipuncture from a marginal ear vein into a blood collection tube containing EDTA as anticoagulant from various animal groups at 0.5 hours post dose, 2 hours post dose. A terminal blood sample was obtained from all animals just prior to euthanasia. Animals were euthanized 1, 3 or 6 hours after administration of the drug solution. Ocular tissues (listed in Table 7) were obtained after euthanasia.
# The concentration of mecamylamine in plasma and ocular tissues was measured using an LC MS/MS method as described in Example 6.
# [2] = Ocular bioavailability following topical ocular administration of 2% isotonic or in situ gel-forming solution (Examples 5, 6); format: in vivo, New Zealand White rabbit; conditions: rabbit
# Source text: The objective of this study was to determine the pharmacokinetics of mecamylamine, administered either as an isotonic solution (prepared as in Example 3) or in situ gel-forming solution (as prepared in Example 4), in the plasma, vitreous humor and retina of the eyes when applied topically to the surface of the eye.
# The study comprised 2 groups (N=4/group; 8 rabbits total) of male NZW rabbits each weighing approximately 2-3 kg and obtained from Kralek Farms (Turlock, Calif.). […] For both groups, samples of the vitreous(≧0.1 ml) were withdrawn at 6 time points (one withdrawal per eye): pre-dose, 30 min, 1 (sacrifice), 3, 6, 12, and 24 (sacrifice) hr. At all time points, only duplicate vitreous fluid samples (each coming from different eye from different animals) were collected in order to minimize pain and damage to rabbit eyes.
# Blood for plasma(≧0.5 ml) and intra-vitreal fluid (˜0.1 ml) were collected at 0, 30, 60 min from each animal with sacrifice for 2 animals/group at 60 minutes. […]
# A 0.5 mg/mL stock of mecamylamine hydrochloride USP in DMSO was prepared and used as the working standard to produce the calibration standards for quantification of the mecamylamine content in various samples collected as described above. […]
# Each tissue sample collected was weighed. […] The samples were analyzed using LC/MS/MS and quantified using the calibration standards prepared in plasma as described above.
# [3] = rabbit, 3% solution, 1 hour to 6 hours after dosing
compound,measurement,setting,value
"CNC1(C)C2CCC(C2)C1(C)C (centres unmarked) [mecamylamine, N-2,3,3-tetramethylbicyclo(2.2.1)heptan-2-amine]",Kp,"[1]; male, Dutch-belted, retina/choroid and plasma, topical, 50 µL of 3% solution per dose, rabbit, 3% solution, read-out: ratio of mecamylamine concentration in the retina/choroid to the plasma",37 to 147
same,Plasma levels,"[1]; rabbit, 3% solution",≤ 50 ng/mL
same,Mean peak levels in aqueous humor,[1]; [3],310 to 920 ng/mL
same,Mean peak levels in the retina/choroid,[1]; [3],171 to 510 ng/g
same,mecamylamine concentration in the retina/choroid after 6 hourly doses relative to single dose,"[1]; rabbit, 1 hour after 6 hourly doses",five-fold
same,mean maximum concentration of mecamylamine detected in plasma,"[1]; rabbits, topical ocular, single dose and multi-dose studies",less than 70 ng/mL
same,"retinal/choroidal tissue:plasma ratio, topical compared to systemic administration",[2],at least 40 fold
same,levels of mecamylamine in erythrocytes (red blood cells) versus plasma,[2]; topical ocular,comparable
